Experimental data as given in the supplement of paper PMC10307832.

Columns and labels:
Assay in all cases: relative viability (nuclei count vs DMSO), 5 days (fraction); higher = more cells survive
VX-702 + Crizotinib = compound: NC(=O)c1ccc(N(C(N)=O)c2c(F)cccc2F)nc1-c1ccc(F)cc1F [VX-702] + C[C@@H](Oc1cc(-c2cnn(C3CCNCC3)c2)cnc1N)c1c(Cl)ccc(F)c1Cl [Crizotinib] (partner 1 µM)
Method in brief: (§1)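 Lung cancer cell lines, seeded in 1536-well plates, were treated the following day by pin tool with a single drug or with five library-drug doses (not always all listed) in √10 steps on top of a fixed anchor-drug dose. Cells were fixed and nuclei stained in one step after 5 days, and nuclei were counted. Relative viability is the nuclei count for treated wells divided by that for vehicle wells, reported as medians of duplicate plates.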

VX-702 + Linsitinib = compound: NC(=O)c1ccc(N(C(N)=O)c2c(F)cccc2F)nc1-c1ccc(F)cc1F [VX-702] + C[C@]1(O)C[C@@H](c2nc(-c3ccc4ccc(-c5ccccc5)nc4c3)c3c(N)nccn32)C1 [Linsitinib] (partner 1 µM)
Method in brief: as §1

Dabrafenib + Palbociclib = compound: CC(C)(C)c1nc(-c2cccc(NS(=O)(=O)c3c(F)cccc3F)c2F)c(-c2ccnc(N)n2)s1 [Dabrafenib] + CC(=O)c1c(C)c2cnc(Nc3ccc(N4CCNCC4)cn3)nc2n(C2CCCC2)c1=O [Palbociclib] (partner 0.5 µM)
Method in brief: as §1

Dabrafenib + Navitoclax = compound: CC(C)(C)c1nc(-c2cccc(NS(=O)(=O)c3c(F)cccc3F)c2F)c(-c2ccnc(N)n2)s1 [Dabrafenib] + CC1(C)CCC(c2ccc(Cl)cc2)=C(CN2CCN(c3ccc(C(=O)NS(=O)(=O)c4ccc(N[C@H](CCN5CCOCC5)CSc5ccccc5)c(S(=O)(=O)C(F)(F)F)c4)cc3)CC2)C1 [Navitoclax] (partner 0.5 µM)
Method in brief: as §1

Cell Line	relative viability (VX-702 + Crizotinib; first compound 0.02 µM)	relative viability (VX-702 + Crizotinib; first compound 0.2 µM)	relative viability (VX-702 + Crizotinib; first compound 0.6325 µM)	relative viability (VX-702 + Crizotinib; first compound 2 µM)	relative viability (VX-702 + Linsitinib; first compound 0.02 µM)	relative viability (VX-702 + Linsitinib; first compound 0.2 µM)	relative viability (VX-702 + Linsitinib; first compound 0.6325 µM)	relative viability (VX-702 + Linsitinib; first compound 2 µM)	relative viability (Dabrafenib + Palbociclib; first compound 0.009487 µM)	relative viability (Dabrafenib + Palbociclib; first compound 0.09487 µM)	relative viability (Dabrafenib + Palbociclib; first compound 0.3 µM)	relative viability (Dabrafenib + Navitoclax; first compound 0.003 µM)	relative viability (Dabrafenib + Navitoclax; first compound 0.009487 µM)	relative viability (Dabrafenib + Navitoclax; first compound 0.03 µM)	relative viability (Dabrafenib + Navitoclax; first compound 0.09487 µM)	relative viability (Dabrafenib + Navitoclax; first compound 0.3 µM)	relative viability (Dabrafenib + Palbociclib; first compound 0.003 µM)	relative viability (Dabrafenib + Palbociclib; first compound 0.03 µM)
HARA	1.1	0.982	1.07	1.13	1.02	0.877	0.927	0.797	0.325	0.304	0.338	1.14	1.15	1.07	1.07	1.12		
A-427	0.824	0.81	0.808	1.01	1.1	1.05	1.17	1.17	0.537	0.459	0.533		0.954	0.91	0.803	0.888	0.485	0.509
NCI-H3122	0.268	0.238	0.251	0.258	1.02	1.02	0.985	1.01	0.207	0.167	0.181	1.04	1.01	1.06	0.991	1.08	0.186	0.2
PC-14	0.874	0.86	0.818	1.02	0.965	0.943	1.04	1.04	0.643	0.522	0.65	1.01	0.977	1.05	1.01	1.06		0.618
NCI-H1915	0.868	0.845	0.913	0.944	1.11	1.14	1.08	1.08	0.579	0.417	0.508	0.777	0.768	0.733	0.732	0.746	0.52	0.447
NCI-H1793					0.815	0.73	0.687	0.974	0.411	0.289	0.291	0.463	0.599	0.306	0.445	0.669		
NCI-H1650	1.19	1.05	1	1.24					0.382	0.301	0.358	1.25	1.44	1.21	1.35	1.42	0.332	0.235
CAL-12T	0.636	0.564	0.756	0.651	0.815	0.898	0.722	0.881	0.486	0.388	0.722	1.28	1.32	1.4	1.3	1.27	0.461	0.599
NCI-H1703	0.645	0.585	0.608	0.78	0.531	0.717	0.937	1.26				1.33	1.41	1.6	0.951	1.09		
Calu-6	0.847	0.86	0.764	0.996		0.967	1.09	1.02				0.83	0.799	0.77	0.604	0.587		
